Assays:
[1] = tested on: immortalized cells in Fuchs' endothelial corneal dystrophy (iFECD); settings: in vitro; cited from earlier work
[2] = Stability of emricasan in solution using HCO-60, HPLC (Example 3); assay type: physicochemical; settings: 0.5% emricasan, 0.5% HCO-60
Description: Stability of when HCO-60 was used as a surfactant to dissolve emricasan to a final concentration of 0.5% was tested. 500 mg of emricasan was accurately measured with an electronic balance (AUW220D, SHIMADZU) and transferred to a glass test tube. 2 ml of 99% ethanol was added thereto to dissolve emricasan. The solution thereof was sufficiently stirred with a vortex mixer in order to completely dissolve emricasan. The solution thereof was then added with polyoxyethylene hydrogenated castor oil 60 (HCO-60, NIKKOL), which is a surfactant, so that the final concentration was 0.5%, followed by sufficient stirring. Ethanol was then distilled off by a nitrogen gas stream. In order to adjust osmotic pressure, concentrated glycerin was added to this solution so that the final concentration was 1%. Phosphate buffered saline (PBS) was adjusted to pH 8, and added so that the total amount was 100 ml. After the solution was sufficiently stirred, 20 ml was collected and filtered with a 0.22 μmGV filter (Merck Millipore). 5 ml of the first filtrate was discarded, and 15 ml of the subsequent filtrate was collected. […] In this case, the stability was evaluated over time by assuming the results of HPLC measurement immediately after preparation to be 100% and comparing said results with the results after 2 weeks and 4 weeks. […]

[3] = Solubility of emricasan with 2% surfactant at various pH, visually observed (Example 1); assay type: physicochemical
Description: 28 mg, which is the amount for the target concentration, of emricasan powder (Chemscene) was accurately measured with an electronic balance (AUW220D, SHIMADZU) and transferred to a glass test tube. 100 μl of 99% ethanol was added thereto to dissolve the emricasan powder. The solution thereof was sufficiently stirred with a vortex mixer in order to completely dissolve the emricasan powder. The solution thereof was then added with each of polysorbate 80 (Tween 80, NIKKOL), polyoxyethylene hydrogenated castor oil (HCO-60, NIKKOL), and polyethylene glycol monostearate (MYS-40, NIKKOL), which are nonionic surfactants comprising a polyoxyethylene group, so that the final concentration was 2%, followed by sufficient stirring. Phosphate buffered saline (PBS) was added to this solution so that the total amount was 5 ml, and the solution was sufficiently stirred and solubility was visually observed.

[4] = Lyophilization test of emricasan ophthalmic solution, re-solubility by HPLC (Example 6); assay type: physicochemical; settings: water added
Description: 7 mg of emricasan was accurately measured with an electronic balance (AUW220D, SHIMADZU) and transferred to a glass test tube. 140 μl of 99% ethanol was added thereto to dissolve emricasan. The solution thereof was sufficiently stirred with a vortex mixer in order to completely dissolve emricasan. The solution thereof was then added with polysorbate 80 (Tween 80, NIKKOL), which is a surfactant, so that the final concentration was 0.5%, followed by sufficient stirring. Ethanol was then distilled off by a nitrogen gas stream. D-mannitol (Wako Pure Chemical Industries, Ltd.) was dissolved into phosphate buffered saline (PBS) so that the final concentration was 4.5%, and the solution thereof was adjusted to pH 4.5 and added to the above solution so that the total amount was 7 ml. This solution was sufficiently stirred, and preserved in a −83° C. freezer for one day. After freezing, water was completely removed by a lyophilization machine (FDU-1200, TOKYO RIKAKIKAI CO, LTD) for 12 hours.
Water was then added to study the re-solubility. Further, after this sample was filtered with a 0.22 μmGV filter (Merck Millipore), the re-solubility of emricasan was measured by a high performance liquid chromatography (HPLC, Shimadzu Corporation). […]

[5] = Solubility of emricasan with 0.5% of various surfactants at low pH, visually observed (Example 2); assay type: physicochemical; settings: target 10 mmol/L; surfactant 0.5% (HCO-100, HCO-60, HCO-40, HCO-20, CO-35, MYS-40, poloxamer 407)
Description: In this example, a target dissolution concentration of emricasan was set to be 10 mmol/L in the same manner as Example 1. 28 mg of emricasan was accurately measured with an electronic balance (AUW220D, SHIMADZU) and transferred to a glass test tube. 100 μl of 99% ethanol was added thereto to dissolve emricasan. The solution thereof was sufficiently stirred with a vortex mixer in order to completely dissolve emricasan. The solution thereof was then added with polyoxyethylene hydrogenated castor oil 100 (HCO-100, NIKKOL), polyoxyethylene hydrogenated castor oil (HCO-60, NIKKOL), polyoxyethylene hydrogenated castor oil 40 (HCO-40, NIKKOL), polyoxyethylene hydrogenated castor oil 20 (HCO-20, NIKKOL), polyoxyethylene castor oil (CO-35:, NIKKOL), polyethylene glycol monostearate 40 (MYS-40, NIKKOL), and polyoxyethylene polyoxypropylene glycol 407 (poloxamer 407, NIKKOL), which are nonionic surfactants comprising a polyoxyethylene group, so that the final concentration was 0.5%, followed by sufficient stirring. Phosphate buffered saline (PBS) was added to this solution so that the total amount was 5 ml, and the solution was sufficiently stirred and solubility was visually observed.

[6] = Stability of emricasan in solution using Tween 80, HPLC (Example 4); assay type: physicochemical; settings: 0.5% emricasan, 0.5% Tween 80
Description: Stability of when Tween 80 was used as a surfactant to dissolve emricasan to a final concentration of 0.5% was tested. 500 mg of emricasan was accurately measured with an electronic balance (AUW220D, SHIMADZU) and transferred to a glass test tube. 2 ml of 99% ethanol was added thereto to dissolve emricasan. The solution thereof was sufficiently stirred with a vortex mixer in order to completely dissolve emricasan. The solution thereof was then added with polysorbate 80 (Tween 80, NIKKOL), which is a surfactant, so that the final concentration was 0.5%, followed by sufficient stirring. Ethanol was then distilled off by a nitrogen gas stream. In order to adjust osmotic pressure, concentrated glycerin was added to this solution so that the final concentration was 1%. Phosphate buffered saline (PBS) was adjusted to pH 8, and added so that the total amount was 100 ml. After the solution was sufficiently stirred, 20 ml was collected and filtered with a 0.22 μmGV filter (Merck Millipore). 5 ml of the first filtrate was discarded, and 15 ml of the subsequent filtrate was collected. 5 ml of this filtrate was placed in each glass test tube for 4° C., 25° C., and 37° C., shaded by a parafilm and an aluminum foil, and preserved under each temperature condition. The stability of this sample was studied by a high performance liquid chromatography (HPLC, Shimadzu Corporation). […]

[7] = Stability of emricasan in an acidic region using Tween 80, HPLC (Example 5); assay type: physicochemical
Description: Stability of when Tween 80 was used as a surfactant to dissolve emricasan to a final concentration of 0.1% was tested.
45 mg of emricasan was accurately measured with an electronic balance (AUW220D, SHIMADZU) and transferred to a glass test tube. 0.9 ml of 99% ethanol was added thereto to dissolve emricasan. The solution thereof was sufficiently stirred with a vortex mixer in order to completely dissolve emricasan. The solution thereof was then added with polysorbate 80 (Tween 80, NIKKOL), which is a surfactant, so that the final concentration was 0.5%, followed by sufficient stirring. Ethanol was then distilled off by a nitrogen gas stream. In order to adjust osmotic pressure, concentrated glycerin was added to this solution so that the final concentration was 1%. Phosphate buffered saline (PBS) was adjusted to pH 5.5, and added so that the total amount was 45 ml. After the solution was sufficiently stirred, 20 ml was collected and filtered with a 0.22 μmGV filter (Merck Millipore). 5 ml of the first filtrate was discarded, and 15 ml of the subsequent filtrate was collected. 5 ml of this filtrate was placed in each glass test tube for 4° C., 25° C., and 37° C., shaded by a parafilm and an aluminum foil, and preserved under each temperature condition. The stability of this sample was studied by a high performance liquid chromatography (HPLC, Shimadzu Corporation). HPLC conditions were as follows: acetonitrile containing 0.05% trifluoroacetic acid and water were used at the ratio of 60:40 as a mobile phase, the temperature of VR-ODS column (4.6×150 mm, Shimadzu Corporation) was set to be 40° C., the flow rate was set to be 1.0 ml/min, the detection wavelength was set to be 254 nm, the injection volume was set to be 10 μl, and the detection time was set to be 10 minutes. In this case, the stability was studied over time by assuming the results of HPLC measurement immediately after preparation to be 100% and comparing said results with the results after 2 weeks and 4 weeks. Further, the condition of pH 4.5 was prepared and studied in the same method as described above.

C[C@H](NC(=O)C(=O)Nc1ccccc1C(C)(C)C)C(=O)N[C@@H](CC(=O)O)C(=O)COc1c(F)c(F)cc(F)c1F [emricasan]
concentration that exhibited pharmacological activity [1]: 10 μmol/L | stability in solution ([2]; 25° C. and 37° C.): degradation of emricasan was observed | emricasan which was not degraded (residual vs immediately after preparation) ([2]; pH 6 to 8, 4° C., 4 weeks): no less than 90% | solubility (visually observed) ([3]; HCO-60 2%, pH 5.0, target 10 mmol/L): a suspended state was maintained | solubility (visually observed) ([3]; Tween 80, HCO-60 or MYS-40 2%, pH 7, target 10 mmol/L): dissolution of all of the emricasan was observed | solubility in saline, phosphate buffer, purified water ([3]; no surfactant, at a concentration for use in an eye drop): poorly soluble | solubility (visually observed) ([3]; no surfactant, pH 7.0 to 8.0, target 10 mmol/L): dissolution was not observed | minimum pH value of a solvent in which dissolution was visually observed ([3]; target 10 mmol/L, nonionic polyoxyethylene surfactant 2%): 6.0 | solubility (visually observed) ([3]; with surfactant 2%, pH 5.0, target 10 mmol/L): slightly dissolved | amount of emricasan dissolved relative to before lyophilization ([4]; lyophilized (0.5% Tween 80, 4.5% D-mannitol, pH 4.5), after 0.22 μm filtration): about 88% | re-solubility after addition of water (appearance) ([4]; lyophilized sample): immediately dissolved but was pale white | final pH at which dissolution was observed [5]: ≥ 6.5 | stability in solution ([6]; 25° C. and 37° C.): degradation of emricasan was observed | emricasan which was not degraded (residual vs immediately after preparation) ([6]; pH 6 to 8, 4° C., 4 weeks): no less than 90% | emricasan which was not degraded ([7]; 0.1% emricasan, 0.5% Tween 80, pH 4.5, 25° C., 2 weeks): no less than 90% | emricasan which was not degraded ([7]; 0.1% emricasan, 0.5% Tween 80, pH 4.5 and 5.5, 4° C., 4 weeks): no less than 90% | stability in solution ([7]; 0.1% emricasan, 0.5% Tween 80, pH 4.5 and pH 5.5, 37° C.): degradation of emricasan was observed | emricasan which was not degraded ([7]; 0.1% emricasan, 0.5% Tween 80, pH 5.5, 25° C., 2 weeks): less than 90% | emricasan which was not degraded ([7]; 0.1% emricasan, 0.5% Tween 80, pH 5.5, 25° C., 4 weeks): no less than 50% | solubility at final concentration of 0.1% ([7]; 0.5% Tween 80, pH 4.5 and pH 5.5): dissolved | amount of emricasan that dissolves ([7]; pH on the acidic side): at least 0.1 % by weight
